# In the supplement of paper PMC5908809:
# Tests used:
# Experiment in all cases: relative IC50 (inflection point of fitted viability curve, relative to fitted max inhibition); higher = less sensitive
# Conditions in all cases: 72 h
# [1] = system: normal primary NK cells, pool 2 (3 donors) (IL-2 2.5 ng/mL)
# Description: (§1)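 Drug sensitivity and resistance testing: 5 concentrations over a 10,000-fold range, 72 h at 37 °C, viability by CellTiter-Glo normalised to DMSO and benzethonium chloride controls. IC50 is the inflection point of a logistic fit (min fixed at 0, max fitted), so it is relative to the fitted maximal inhibition. Kept only where fitted max inhibition is at least 50%.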
# [2] = system: normal primary NK cells, pool 1 (3 donors), resting (IL-2 0 ng/mL)
# Description: as §1
# [3] = system: normal primary NK cells, pool 3 (3 donors) (IL-2 2.5 ng/mL)
# Description: as §1
# [4] = system: normal primary NK cells, pool 1 (3 donors) (IL-2 2.5 ng/mL)
# Description: as §1
# KAI3 (IL-2 2.5 ng/mL) = system: KAI3 (IL-2 2.5 ng/mL)
# Description: as §1
# YT (IL-2 2.5 ng/mL) = system: YT (IL-2 2.5 ng/mL)
# Description: as §1
# NK-YS (IL-2 2.5 ng/mL) = system: NK-YS (IL-2 2.5 ng/mL)
# Description: as §1
# KHYG-1 (IL-2 2.5 ng/mL) = system: KHYG-1 (IL-2 2.5 ng/mL)
# Description: as §1
# DERL-7 (IL-2 2.5 ng/mL) = system: DERL-7 (IL-2 2.5 ng/mL)
# Description: as §1
# NK-92 (IL-2 2.5 ng/mL) = system: NK-92 (IL-2 2.5 ng/mL)
# Description: as §1
# SNK-6 (IL-2 2.5 ng/mL) = system: SNK-6 (IL-2 2.5 ng/mL)
# Description: as §1
# NKL (IL-2 2.5 ng/mL) = system: NKL (IL-2 2.5 ng/mL)
# Description: as §1
# IMC-1 (IL-2 20 ng/mL) = system: IMC-1 (IL-2 20 ng/mL)
# Description: as §1
Compound,relative IC50 [1] [nM],relative IC50 [2] [nM],relative IC50 [3] [nM],relative IC50 [4] [nM],relative IC50 (KAI3 (IL-2 2.5 ng/mL)) [nM],relative IC50 (YT (IL-2 2.5 ng/mL)) [nM],relative IC50 (NK-YS (IL-2 2.5 ng/mL)) [nM],relative IC50 (KHYG-1 (IL-2 2.5 ng/mL)) [nM],relative IC50 (DERL-7 (IL-2 2.5 ng/mL)) [nM],relative IC50 (NK-92 (IL-2 2.5 ng/mL)) [nM],relative IC50 (SNK-6 (IL-2 2.5 ng/mL)) [nM],relative IC50 (NKL (IL-2 2.5 ng/mL)) [nM],relative IC50 (IMC-1 (IL-2 20 ng/mL)) [nM]
CC(C)Oc1cc(Nc2nc(N[C@@H](C)c3ccc(F)cn3)ncc2Cl)n[nH]1 [AZ-23],606,> 1000,–,–,–,–,–,–,–,–,–,–,–
O=S(=O)(c1cccc2cnccc12)N1CCCNCC1 [Fasudil],10900,–,15900,8170,6870,8760,–,–,–,–,–,–,–
NS(=O)(=O)OC[C@@H]1C[C@@H](n2ccc3c(N[C@H]4CCc5ccccc54)ncnc32)C[C@@H]1O [Pevonedistat],449,–,335,156,48.7,55.1,507,69,430,633,39.7,448,107
COC(=O)N[C@@H](C)CNc1nccc(-c2cn(C(C)C)nc2-c2cc(Cl)cc(NS(C)(=O)=O)c2F)n1 [Encorafenib],> 1000,–,> 1000,> 1000,–,–,–,34.3,–,–,–,–,–
Oc1nc(-c2ccc(C(F)(F)F)cc2)nc2c1CSCC2 [XAV-939],–,> 10000,–,–,–,–,–,–,–,–,968,–,–
Cc1cc2c(F)c(Oc3ncnn4cc(OC[C@@H](C)O)c(C)c34)ccc2[nH]1 [Brivanib],> 1000,–,> 1000,–,–,> 1000,–,> 1000,–,> 1000,–,> 1000,> 1000
CC(C)Cn1cnc2c(N)nc3ccccc3c21 [Imiquimod],–,–,–,–,–,–,–,–,–,–,89.6,–,–
CC/C(=C(\c1ccccc1)c1ccc(OCCN(C)C)cc1)c1ccccc1 [Tamoxifen],2590,1680,–,2060,2450,2700,–,–,1680,2940,3700,1430,–
CNC(=O)c1ccc2cc([C@@]3(O)CCn4cncc43)ccc2c1 [Orteronel],> 10000,–,> 10000,–,> 10000,–,> 10000,–,–,–,–,–,–
Cc1c(CN2CCN(C(=O)[C@H](C)O)CC2)sc2c(N3CCOCC3)nc(-c3cnc(N)nc3)nc12 [Apitolisib],1320,–,2310,902,457,622,599,1600,204,145,–,492,–
C[C@]12O[C@H](C[C@]1(O)CO)n1c3ccccc3c3c4c(c5c6ccccc6n2c5c31)CNC4=O [Lestaurtinib],21.5,–,44.1,20.9,11.9,78.3,85,16,28.6,31.1,38.5,28.1,96.7
O=C1NC(=O)[C@@H](c2cn3c4c(cccc24)CCC3)[C@@H]1c1c[nH]c2ccccc12 [Tivantinib],–,–,–,–,167,238,118,221,347,115,50.8,370,310
COc1cc(Nc2ncc(F)c(Nc3ccc4c(n3)N(COP(=O)(O)O)C(=O)C(C)(C)O4)n2)cc(OC)c1OC [Fostamatinib],–,–,–,–,–,–,–,–,–,–,–,–,> 2500
Cc1cc(Nc2nc(N[C@@H](C)c3ncc(F)cn3)ncc2Cl)[nH]n1 [AZD1480],80.6,–,123,75.5,20.8,197,78.1,26.1,50.5,126,73.1,23.3,331
CO[C@@H](C(=O)N1Cc2[nH]nc(NC(=O)c3ccc(N4CCN(C)CC4)cc3)c2C1)c1ccccc1 [Danusertib],–,–,–,–,460,–,204,493,175,337,413,1380,312
N#CCNC(=O)c1ccc(-c2ccnc(Nc3ccc(N4CCOCC4)cc3)n2)cc1 [Momelotinib],810,–,1000,177,205,1140,796,173,394,346,891,178,1800
CN(Cc1cnc2nc(N)nc(N)c2n1)c1ccc(C(=O)N[C@@H](CCC(=O)O)C(=O)O)cc1 [Methotrexate],> 5000,–,> 5000,–,17.9,13.7,19.1,17.8,268,21.1,9.91,38.4,26.1
CCn1c(C(=O)N(C2CC2)C2CC2)cc2c3c(ncn3C)c(Nc3cc(C)n(C)n3)nc21,–,–,–,–,180,–,–,1820,1630,1980,–,797,–
O=C(O)c1ccc(-c2c[nH]c3ncc(-c4ccccc4)cc23)cc1C1CCCC1,–,–,–,–,307,–,1460,1490,2820,2330,–,1400,3040
O=C(Nc1cc(Cl)cc2c1[nH]c1cnccc12)c1cccnc1 [PS-1145],–,–,–,–,1650,–,–,–,–,–,–,–,–
CC(C)c1c(C(=O)Nc2ccccc2)c(-c2ccccc2)c(-c2ccc(F)cc2)n1CC[C@@H](O)C[C@@H](O)CC(=O)O [Atorvastatin],–,–,–,–,2760,1630,579,2380,2180,3670,–,332,1520
CCC(C)(C)C(=O)O[C@H]1C[C@@H](C)C=C2C=C[C@H](C)[C@H](CC[C@@H]3C[C@@H](O)CC(=O)O3)[C@H]21 [Simvastatin],–,–,–,–,–,–,2380,–,–,–,–,2450,–
O=P1(NCCCl)OCCCN1CCCl (centres undefined) [Ifosfamide],> 10000,–,> 10000,–,> 10000,> 10000,–,> 10000,> 10000,> 10000,–,> 10000,> 10000
CCN(CC)CCNC(=O)c1c(C)[nH]c(/C=C2\C(=O)Nc3ccc(F)cc32)c1C [Sunitinib],–,–,–,–,–,–,–,> 1000,–,> 1000,–,> 1000,> 1000
Cc1cccc(-c2nn3c(c2-c2ccnc4ccc(C(N)=O)cc24)CCC3)n1 [Galunisertib],> 1000,–,> 1000,–,–,–,> 1000,–,–,–,–,> 1000,> 1000
Cn1ncnc1[C@H]1c2n[nH]c(=O)c3cc(F)cc(c23)N[C@@H]1c1ccc(F)cc1 [Talazoparib],–,–,–,–,28.1,–,22.2,93.8,–,59.8,134,2.3,164
